The assay concerns cortical neurons. The assay can be described thus: Cell toxicity assay (LDH release) after excitotoxic TBOA treatment. The following applies: 3 μM peptide, TBOA 60 μM, LDH 24 h after initial TBOA treatment, mean±SEM (FIG. 4D). The format is cell-based, rat. Here is the method:
Cortical neurons were pre-treated with vehicle, TAT-DP-2 (3 μM), or TAT-Sc-2 (3 μM) for 2 hours in HEPES-buffered minimal essential media with 0.01% bovine serum albumin (MHB). Next, cells with the same peptide concentrations along with either vehicle or 60 μM DL-threo-β-benzyloxyaspartic acid (TBOA) for 6 hours. Each well was washed two times with either 0.5 mL of vehicle or 60 μM TBOA and neurons were incubated overnight. Twenty-four hours following initial TBOA treatment, media was collected for lactate dehydrogenase assays (Sigma Aldrich, St. Louis, Mo.). Relative toxicity was quantified by calculating the ratio of LDH concentration in TBOA-treated over non-TBOA-treated wells. […]
With evidence that TAT-DP-2-mediated declustering prevents enhancement of pro-apoptotic Kv2.1 potassium currents following injury, the neuroprotective actions of TAT-DP-2 in cortical neurons in vitro were next tested. […] Neurotoxicity was assessed by the release of lactate dehydrogenase (LDH) into the culture medium, as described previously (Aras, et al., Curr Protoc Neurosci. 44: 7.18.1-7.18.15, 2008). […] Based on these findings, the potential neuroprotective actions of TAT-DP-2 were evaluated in an in vivo model of ischemia-reperfusion injury, where a substantial contribution of Kv2.1-enabled neuronal cell death has been previously observed (Yeh et al., J Neurosci. 37: 5648-5658, 2017).
A general note: LDH in the medium is a marker of cell lysis.

For the sequence “YGRKKRRQRRRDFSSIST [TAT-Sc-2, TAT-linked scramble control peptide]”, the “mean relative toxicity ([LDH]TBOA/[LDH]Veh)” value is recorded as 1.57±0.15.

On to “YGRKKRRQRRRSIDSFTS [TAT-DP-2, TAT-linked declustering peptide 2]”, for which the “mean relative toxicity ([LDH]TBOA/[LDH]Veh)” value was 1.01±0.15.

These data come from patent US11673916B2, “Neuroprotective peptides and methods of their use” (University of Pittsburgh—Of the Commonwealth System of …, priority 2020, dated 2023).
